Assay results from US8962596B2 (Array BioPharma Inc., priority 2010, dated 2015).
Structures can show the parent of a compound that is named as a salt.

What was measured:
Type in all cases: biochemical
JAK3 = target: T1, JAK3 (Homo sapiens, UniProt P52333); assay: JAK3 Inhibition Assay (Omnia kinase fluorescence peptide substrate assay); conditions: averaged IC50 ranges; assay of Example D; 10 μM (Km app) or 1 mM ATP, 2.5 nM JAK3
T1 construct: purchased Invitrogen Corporation, Carlsbad, Calif; PV4080
T1 sequence (P52333 1-1124): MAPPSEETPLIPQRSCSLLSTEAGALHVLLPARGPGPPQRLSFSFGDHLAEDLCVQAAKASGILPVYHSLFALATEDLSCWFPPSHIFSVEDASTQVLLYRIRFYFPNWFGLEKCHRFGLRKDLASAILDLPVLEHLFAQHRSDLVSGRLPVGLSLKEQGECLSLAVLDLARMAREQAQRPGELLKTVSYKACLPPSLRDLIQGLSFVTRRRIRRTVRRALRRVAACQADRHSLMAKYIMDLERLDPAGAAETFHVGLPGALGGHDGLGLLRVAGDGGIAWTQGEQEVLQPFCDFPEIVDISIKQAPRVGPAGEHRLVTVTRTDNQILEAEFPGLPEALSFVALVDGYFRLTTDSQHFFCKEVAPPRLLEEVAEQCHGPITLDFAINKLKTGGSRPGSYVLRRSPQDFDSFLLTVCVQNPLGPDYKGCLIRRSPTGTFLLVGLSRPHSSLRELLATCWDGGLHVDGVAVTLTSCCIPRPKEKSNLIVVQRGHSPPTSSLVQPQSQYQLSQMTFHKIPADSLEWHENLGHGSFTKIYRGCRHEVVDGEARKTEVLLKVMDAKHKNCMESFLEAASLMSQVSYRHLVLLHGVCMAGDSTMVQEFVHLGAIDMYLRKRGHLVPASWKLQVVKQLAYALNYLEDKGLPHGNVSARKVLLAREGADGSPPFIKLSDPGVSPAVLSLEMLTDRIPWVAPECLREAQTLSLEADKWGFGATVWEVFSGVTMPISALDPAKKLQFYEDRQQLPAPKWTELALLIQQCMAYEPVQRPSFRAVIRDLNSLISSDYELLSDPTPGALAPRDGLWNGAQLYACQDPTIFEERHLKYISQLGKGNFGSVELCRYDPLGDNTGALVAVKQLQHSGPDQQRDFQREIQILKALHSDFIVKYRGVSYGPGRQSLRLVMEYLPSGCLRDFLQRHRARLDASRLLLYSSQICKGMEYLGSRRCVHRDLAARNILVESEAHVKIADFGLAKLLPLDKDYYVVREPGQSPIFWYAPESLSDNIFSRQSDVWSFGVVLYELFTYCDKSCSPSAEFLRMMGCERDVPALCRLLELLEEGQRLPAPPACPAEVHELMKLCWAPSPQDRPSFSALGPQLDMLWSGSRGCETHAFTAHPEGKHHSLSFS
How it was run: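 Kinase at 2.5 nM with 10 µM Omnia Y7 peptide and 10 µM (Km app) or 1 mM ATP in 25 mM HEPES pH 7.4, 10 mM MgCl2, 1 mM DTT, 0.01% Triton X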

JAK2 = target: T2, JAK2 (Homo sapiens, UniProt O60674); assay: JAK2 Inhibition Assay (Omnia kinase fluorescence peptide substrate assay); conditions: averaged IC50 ranges; assay of Example C; 25 μM (Km app) or 1 mM ATP, 5 nM JAK2
T2 construct: purchased Invitrogen Corporation, Carlsbad, Calif; PV4288
T2 sequence (O60674 whole entry): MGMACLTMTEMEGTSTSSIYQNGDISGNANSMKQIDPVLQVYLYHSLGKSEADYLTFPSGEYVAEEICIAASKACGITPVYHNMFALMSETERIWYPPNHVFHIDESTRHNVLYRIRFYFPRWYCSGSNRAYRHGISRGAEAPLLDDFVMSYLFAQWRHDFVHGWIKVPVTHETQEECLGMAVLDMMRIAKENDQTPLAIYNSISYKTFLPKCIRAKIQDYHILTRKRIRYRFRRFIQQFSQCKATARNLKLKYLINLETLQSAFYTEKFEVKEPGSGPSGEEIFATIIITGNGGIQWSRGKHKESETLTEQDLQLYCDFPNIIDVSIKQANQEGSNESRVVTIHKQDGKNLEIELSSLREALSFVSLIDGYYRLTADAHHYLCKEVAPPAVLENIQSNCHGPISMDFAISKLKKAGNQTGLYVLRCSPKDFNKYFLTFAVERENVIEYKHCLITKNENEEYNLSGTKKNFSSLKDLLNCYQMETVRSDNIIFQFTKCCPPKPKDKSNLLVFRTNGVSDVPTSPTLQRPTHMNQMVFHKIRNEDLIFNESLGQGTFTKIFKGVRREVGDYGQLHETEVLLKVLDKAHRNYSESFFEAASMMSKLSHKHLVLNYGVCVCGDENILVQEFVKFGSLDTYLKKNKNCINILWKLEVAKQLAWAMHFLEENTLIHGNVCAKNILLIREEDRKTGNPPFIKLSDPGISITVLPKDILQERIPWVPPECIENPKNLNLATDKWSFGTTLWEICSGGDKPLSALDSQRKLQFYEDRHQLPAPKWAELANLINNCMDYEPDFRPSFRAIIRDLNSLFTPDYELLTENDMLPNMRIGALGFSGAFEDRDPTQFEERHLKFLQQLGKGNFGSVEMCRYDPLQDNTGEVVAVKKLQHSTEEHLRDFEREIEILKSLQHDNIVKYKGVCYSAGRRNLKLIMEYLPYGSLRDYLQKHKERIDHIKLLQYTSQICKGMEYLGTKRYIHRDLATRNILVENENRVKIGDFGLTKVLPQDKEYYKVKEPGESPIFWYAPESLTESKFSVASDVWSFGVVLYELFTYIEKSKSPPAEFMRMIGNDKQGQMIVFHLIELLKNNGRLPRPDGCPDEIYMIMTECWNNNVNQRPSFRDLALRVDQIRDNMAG
How it was run: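 A 10-point, 3-fold compound series (top 10 μM, 2% DMSO) was tested against 5 nM JAK2 with 10 μM Omnia Y7 substrate and either 1 mM or 25 μM (Km app) ATP. Buffer: pH 7.4 HEPES, MgCl2, Triton X-100, DTT. Sox fluorescence was monitored kinetically for 45 min; IC50 is the concentration giving 50 POC on a 4-parameter fit.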

JAK1 = target: T3, JAK1 (Homo sapiens, UniProt P23458); assay: JAK1 Inhibition Assay (Omnia kinase fluorescence peptide substrate assay); conditions: averaged IC50 ranges; assay of Example B; 40 μM (Km app) or 1 mM ATP, 15 nM JAK1
T3 construct: purchased Invitrogen Corporation, Carlsbad, Calif; PV4775
T3 sequence (P23458 whole entry): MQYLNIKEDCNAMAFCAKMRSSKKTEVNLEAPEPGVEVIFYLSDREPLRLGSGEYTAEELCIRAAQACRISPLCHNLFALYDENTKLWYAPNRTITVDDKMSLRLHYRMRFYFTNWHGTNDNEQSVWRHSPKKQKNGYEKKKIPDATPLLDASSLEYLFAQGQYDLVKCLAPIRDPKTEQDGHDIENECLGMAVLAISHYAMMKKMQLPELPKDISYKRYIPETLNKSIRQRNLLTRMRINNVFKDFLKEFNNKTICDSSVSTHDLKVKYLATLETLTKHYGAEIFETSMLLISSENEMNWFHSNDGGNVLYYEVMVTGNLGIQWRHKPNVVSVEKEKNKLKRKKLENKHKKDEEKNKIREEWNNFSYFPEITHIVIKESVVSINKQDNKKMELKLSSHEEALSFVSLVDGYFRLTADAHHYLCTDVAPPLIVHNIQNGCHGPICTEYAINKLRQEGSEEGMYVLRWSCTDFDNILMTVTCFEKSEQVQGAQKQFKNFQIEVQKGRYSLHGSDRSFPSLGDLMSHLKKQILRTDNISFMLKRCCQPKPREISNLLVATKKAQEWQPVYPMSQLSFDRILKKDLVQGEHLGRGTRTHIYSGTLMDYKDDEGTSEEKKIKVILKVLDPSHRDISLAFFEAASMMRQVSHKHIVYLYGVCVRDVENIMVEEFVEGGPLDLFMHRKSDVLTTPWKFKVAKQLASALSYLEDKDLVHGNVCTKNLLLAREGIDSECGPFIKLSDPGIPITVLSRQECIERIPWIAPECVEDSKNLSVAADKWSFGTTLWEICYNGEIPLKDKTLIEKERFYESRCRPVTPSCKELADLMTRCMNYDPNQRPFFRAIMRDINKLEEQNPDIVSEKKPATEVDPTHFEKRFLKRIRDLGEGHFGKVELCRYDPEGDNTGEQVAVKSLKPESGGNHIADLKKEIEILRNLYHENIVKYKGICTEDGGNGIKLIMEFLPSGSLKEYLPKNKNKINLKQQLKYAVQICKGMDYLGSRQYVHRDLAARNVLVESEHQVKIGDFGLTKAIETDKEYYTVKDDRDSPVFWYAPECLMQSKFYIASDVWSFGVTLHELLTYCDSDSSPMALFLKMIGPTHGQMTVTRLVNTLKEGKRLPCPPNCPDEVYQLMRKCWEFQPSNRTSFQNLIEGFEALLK

Human Tyk2 kinase domain = target: T4, Human Tyk2 kinase domain (Homo sapiens, UniProt P29597); assay: Tyk2 Inhibition Assay (Omnia kinase fluorescence peptide substrate assay); conditions: averaged IC50 ranges; assay of Example A; 10 μM (Km app) or 1 mM ATP, 2 nM Tyk2
T4 construct: comprising amino acids 886 to 1187 with 10 additional histidine residues; 10xHis (histidine tag) (C, cleaved yes); made in house
T4 sequence (P29597 886-1187): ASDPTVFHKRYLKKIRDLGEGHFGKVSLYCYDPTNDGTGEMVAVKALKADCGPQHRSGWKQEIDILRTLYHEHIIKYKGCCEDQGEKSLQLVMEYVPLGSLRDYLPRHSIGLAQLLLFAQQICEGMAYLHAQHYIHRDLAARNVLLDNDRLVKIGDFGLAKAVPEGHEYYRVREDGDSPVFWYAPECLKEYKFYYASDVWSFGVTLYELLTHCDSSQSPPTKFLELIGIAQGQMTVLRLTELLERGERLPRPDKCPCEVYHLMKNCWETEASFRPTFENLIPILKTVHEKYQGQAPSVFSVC
How it was run: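 2 nM His-tag-cleaved kinase domain (aa 886–1187) with 8 μM Omnia Y12 peptide, 10 μM (Km app) or 1 mM ATP, pH 7.4 HEPES/10 mM MgCl2, 2% DMSO. Fluorescence (ex 360/em 485 nm) every 50 s for 45 min; IC50 from 4-parameter fit of POC, top dose 10 μM.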

Row | Compound | IC50 (JAK3) | IC50 (JAK2) | IC50 (JAK1) | IC50 (Human Tyk2 kinase domain)
1 | Cc1cc(-c2cc3nccn3c(-c3cnn(C(CC#N)C4CC4)c3)n2)ccn1 (stereo not shown) [Example 50, 3-cyclopropyl-3-(4-(7-(2-methylpyridin-4-yl)imidazo[1,2-c]pyrimidin-5-yl)-1H-pyrazol-1-yl)propanenitrile] | > 1000 nM | 100 to 1000 nM | 100 to 1000 nM | 10 to 100 nM
2 | CN1CCN(c2ccc(-c3cc4nccn4c(-c4cnn(C(CC#N)C5CC5)c4)n3)cn2)CC1 (stereo not shown) [Example 51, 3-cyclopropyl-3-(4-(7-(6-(4-methylpiperazin-1-yl)pyridin-3-yl)imidazo[1,2-c]pyrimidin-5-yl)-1H-pyrazol-1-yl)propanenitrile] | 100 to 1000 nM | 10 to 100 nM | 100 to 1000 nM | < 10 nM
3 | N#CCC(C1CC1)n1cc(-c2nc(-c3ccc4c(c3)CCNC4)cc3nccn23)cn1 (stereo not shown) [Example 52, 3-Cyclopropyl-3-(4-(7-(1,2,3,4-tetrahydroisoquinolin-6-yl)imidazo[1,2-c]pyrimidin-5-yl)-1H-pyrazol-1-yl)propanenitrile] | 100 to 1000 nM | 10 to 100 nM | 10 to 100 nM | 10 to 100 nM
4 | CN1CCc2cc(-c3cc4nccn4c(-c4cnn(C(CC#N)C5CC5)c4)n3)ccc2C1 (stereo not shown) [Example 53, 3-Cyclopropyl-3-(4-(7-(2-methyl-1,2,3,4-tetrahydroisoquinolin-6-yl)imidazo[1,2-c]pyrimidin-5-yl)-1H-pyrazol-1-yl)propanenitrile] | 100 to 1000 nM | 10 to 100 nM | 10 to 100 nM | 10 to 100 nM
5 | N#CCC(C1CC1)n1cc(-c2nc(-c3ccc4c(c3)CNCC4)cc3nccn23)cn1 (stereo not shown) [Example 54, 3-Cyclopropyl-3-(4-(7-(1,2,3,4-tetrahydroisoquinolin-7-yl)imidazo[1,2-c]pyrimidin-5-yl)-1H-pyrazol-1-yl)propanenitrile] | 100 to 1000 nM | 10 to 100 nM | 10 to 100 nM | < 10 nM
6 | CN1CCc2ccc(-c3cc4nccn4c(-c4cnn(C(CC#N)C5CC5)c4)n3)cc2C1 (stereo not shown) [Example 55, 3-Cyclopropyl-3-(4-(7-(2-methyl-1,2,3,4-tetrahydroisoquinolin-7-yl)imidazo[1,2-c]pyrimidin-5-yl)-1H-pyrazol-1-yl)propanenitrile] | 100 to 1000 nM | 10 to 100 nM | 10 to 100 nM | 10 to 100 nM
7 | N#CCC(C1CC1)n1cc(-c2nc(-c3cnc4n3CCNC4)cc3nccn23)cn1 (stereo not shown) [Example 56, 3-Cyclopropyl-3-(4-(7-(5,6,7,8-tetrahydroimidazo[1,2-a]pyrazin-3-yl)imidazo[1,2-c]pyrimidin-5-yl)-1H-pyrazol-1-yl)propanenitrile] | > 1000 nM | 100 to 1000 nM | > 1000 nM | 100 to 1000 nM
8 | CN1CCn2c(-c3cc4nccn4c(-c4cnn(C(CC#N)C5CC5)c4)n3)cnc2C1 (stereo not shown) [Example 57, 3-cyclopropyl-3-(4-(7-(7-methyl-5,6,7,8-tetrahydroimidazo[1,2-a]pyrazin-3-yl)imidazo[1,2-c]pyrimidin-5-yl)-1H-pyrazol-1-yl)propanenitrile] | > 1000 nM | 100 to 1000 nM | 100 to 1000 nM | 10 to 100 nM
9 | N#CCC(C1CC1)n1cc(-c2nc(-c3ccc(N4CC5CCC(C4)O5)cc3)cc3nccn23)cn1 (stereo not shown) [Example 58, 3-(4-(7-(4-(8-Oxa-3-azabicyclo[3.2.1]octan-3-yl)phenyl)imidazo[1,2-c]pyrimidin-5-yl)-1H-pyrazol-1-yl)-3-cyclopropylpropanenitrile] | 100 to 1000 nM | 10 to 100 nM | 10 to 100 nM | < 10 nM
10 | CN1CCN(c2ccc(-c3cc4nccn4c(-c4cnn(C(CC#N)C5CC5)c4)n3)cc2)CC1 (stereo not shown) [Example 59, 3-Cyclopropyl-3-(4-(7-(4-(4-methylpiperazin-1-yl)phenyl)imidazo[1,2-c]pyrimidin-5-yl)-1H-pyrazol-1-yl)propanenitrile] | 100 to 1000 nM | 10 to 100 nM | 10 to 100 nM | < 10 nM
11 | Cn1cc(-c2ccc(-c3cc4nccn4c(-c4cnn(C(CC#N)C5CC5)c4)n3)cc2)cn1 (stereo not shown) [Example 60, 3-Cyclopropyl-3 (4 (7 (4 (1 methyl-1H-pyrazol-4-yl)phenyl)imidazo[1,2-c]pyrimidin-5-yl)-1H-pyrazol-1-yl)propanenitrile] | 100 to 1000 nM | 10 to 100 nM | 10 to 100 nM | < 10 nM
12 | Cn1cc(-c2cc3nccn3c(-c3cnn(C4(CC#N)CN(C(=O)OC(C)(C)C)C4)c3)n2)cn1 [Example 61, Tert-butyl 3-(cyanomethyl)-3-(4-(7-(1-methyl-1H-pyrazol-4-yl)imidazo[1,2-c]pyrimidin-5-yl)-1H-pyrazol-1-yl)azetidine-1-carboxylate] | > 1000 nM | 100 to 1000 nM | > 1000 nM | 100 to 1000 nM
13 | Cn1cc(-c2cc3nccn3c(-c3cnn(C4(CC#N)CNC4)c3)n2)cn1 [Example 62, 2-(3-(4-(7-(1-Methyl-1H-pyrazol-4-yl)imidazo[1,2-c]pyrimidin-5-yl)-1H-pyrazol-1-yl)azetidin-3-yl)acetonitrile hydrochloride] | > 1000 nM | > 1000 nM | > 1000 nM | 100 to 1000 nM
14 | CC(=O)N1CC(CC#N)(n2cc(-c3nc(-c4cnn(C)c4)cc4nccn34)cn2)C1 [Example 63, 2-(1-Acetyl-3-(4-(7-(1-methyl-1H-pyrazol-4-yl)imidazo[1,2-c]pyrimidin-5-yl)-1H-pyrazol-1-yl)azetidin-3-yl)acetonitrile] | > 1000 nM | > 1000 nM | > 1000 nM | 100 to 1000 nM
15 | Cn1cc(-c2cc3nccn3c(-c3cnn(C4(CC#N)CN(C(=O)CC(F)(F)F)C4)c3)n2)cn1 [Example 64, 2-(3-(4-(7-(1-Methyl-1H-pyrazol-4-yl)imidazo[1,2-c]pyrimidin-5-yl)-1H-pyrazol-1-yl)-1-(3,3,3-trifluoropropanoyl)azetidin-3-yl)acetonitrile] | 100 to 1000 nM | 10 to 100 nM | 100 to 1000 nM | 10 to 100 nM
16 | Cn1cc(-c2cc3nccn3c(-c3cnn(C4(CC#N)CN(C(=O)C5(C(F)(F)F)CC5)C4)c3)n2)cn1 [Example 65, 2-(3-(4-(7-(1-Methyl-1H-pyrazol-4-yl)imidazo[1,2-c]pyrimidin-5-yl)-1H-pyrazol-1-yl)-1-(1-(trifluoromethyl)cyclopropanecarbonyl)azetidin-3-yl)acetonitrile] | 100 to 1000 nM | 10 to 100 nM | 10 to 100 nM | 10 to 100 nM
